The source of these data is patent publication US6849732B2, “Metalloproteinase inhibitors, pharmaceutical compositions containing them and their pharmaceutical uses, and methods and intermediates useful for their preparation” (Agouron Pharmaceuticals, Inc., priority 1995, dated 2005).

Data set [1] concerns the target stromelysin (HSLN) (Homo sapiens, UniProt P08254). The data set is described as follows: MCA fluorogenic enzyme assay, competitive inhibition analysis (Ki,app), stromelysin. The format is biochemical. Conditions: Ki,app; MCA peptide substrate, 37° C., pH 7.5; read-out: Enzyme Inhibition Constants (K1) HSLN.
For data set [2], the target named is T1, gelatinase A (HG72kD) (Homo sapiens, UniProt P08253).
T1 sequence (P08253 110-660): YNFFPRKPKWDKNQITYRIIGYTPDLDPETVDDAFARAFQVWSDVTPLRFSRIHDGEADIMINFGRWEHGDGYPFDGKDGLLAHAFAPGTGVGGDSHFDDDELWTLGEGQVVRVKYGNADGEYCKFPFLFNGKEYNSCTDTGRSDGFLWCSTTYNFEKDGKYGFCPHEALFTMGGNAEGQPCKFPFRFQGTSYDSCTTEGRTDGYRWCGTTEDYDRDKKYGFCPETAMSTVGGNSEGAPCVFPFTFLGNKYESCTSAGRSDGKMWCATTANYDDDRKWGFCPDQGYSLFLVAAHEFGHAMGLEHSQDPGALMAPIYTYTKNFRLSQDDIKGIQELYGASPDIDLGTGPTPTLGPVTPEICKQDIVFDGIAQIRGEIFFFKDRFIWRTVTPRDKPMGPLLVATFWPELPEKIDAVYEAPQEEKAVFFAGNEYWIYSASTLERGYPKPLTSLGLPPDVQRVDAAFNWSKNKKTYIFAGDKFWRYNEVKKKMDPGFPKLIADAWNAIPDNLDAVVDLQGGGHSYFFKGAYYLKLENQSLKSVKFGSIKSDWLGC
The data set is described as follows: MCA fluorogenic enzyme assay, competitive inhibition analysis (Ki,app), gelatinase A. It is filed as biochemical. The settings on record: MCA peptide substrate, 37° C., pH 7.5, read-out: Enzyme Inhibition Constants (K1) HG72kD.

Data set [3] has as its target T2, matrilysin (Matr.) (Homo sapiens, UniProt P09237).
T2 sequence (P09237 95-267): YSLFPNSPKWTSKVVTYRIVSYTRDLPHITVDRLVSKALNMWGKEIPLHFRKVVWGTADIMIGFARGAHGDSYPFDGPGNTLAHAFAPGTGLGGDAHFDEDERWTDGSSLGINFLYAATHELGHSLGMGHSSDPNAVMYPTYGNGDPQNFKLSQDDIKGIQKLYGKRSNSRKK
The data set is described as follows: MCA fluorogenic enzyme assay, competitive inhibition analysis (Ki,app), matrilysin. Conditions: MCA peptide substrate, 37° C., pH 7.5, read-out: Enzyme Inhibition Constants (K1) Matr. It is filed as biochemical. On the procedure: Stromelysin enzymatic activity was measured using a modified version of a resonance energy transfer fluorogenic assay as described in FEBS, vol. 296(3), p. 263 (1992), the disclosure of which is incorporated herein by reference. The MCA-peptide substrate is shown below. The fluorescent MCA group is quenched by resonance energy transfer to the 2,4-dinitrophenyl group. Matrix metalloproteinases cleave this substrate at the Gly-Leu bond. Cleavage results in the loss of energy transfer and a large increase in fluorescence of the MCA group. [drawing 56] 7-methoxycoumarin-4-yl-acetyl-pro-leu-gly-leu-3-(2,4-dinitrophenyl)-L-2,3-diaminoproprionyl-ala-arg-NH2
The MCA assay was performed at 37° C. in buffer containing 50 mM Tricine (pH 7.5), 10 mM CaCl2, 200 mM NaCl, and 1% DMSO with the following concentrations of matrix metalloproteinases: 1.4 nM stromelyin, 0.063 nM matrilysin, and 0.030 nM gelatinase A. The concentration of MCA substrate was 10 or 20 μM in a final volume of 1.6 mL. Fluorescence data was collected with Perkin-Elmer LS-5B and LS-5B spectrofluorimeters with λexcitation=328 nm and λemission=393 nm. Spectrofluorimeters were interfaced with IBM-compatible microcomputer systems.
The Km for the MCA peptide substrate with the matrix metalloproteinases is quite high and exceeds its solubility under assay conditions. Consequently, the apparent Ki (Ki,app) was determined to describe the strength of inhibition. However, in this case, Ki,app would be essentially equal to Ki since [S]<<Km. For the determination of Ki,app, the concentration of the inhibitor was varied at a constant and low concentration of substrate and the steady-state rates of fluorescence change determined. In most cases absorptive quench due to the presence of ligand was not observed. For slow-binding inhibitors, onset of inhibition curves were collected for at least 45 minutes so that equilibrium was established. Steady-state rates of fluorescence change were obtained by fitting a curve to an equation for a single exponential decay containing a linear phase. The fitted value of the linear phase was taken as the steady-state rate. The steady-state rates were fitted to the Michaelis equation describing competitive inhibition by non-linear methods. Data resulting from tight-binding inhibition was analyzed, and Ki,app determined by fitting the data to the tight-binding equation of Morrison See (Biochem. Biophys. Acta, vol. 185, pp. 269-286 (1969)) by non-linear methods.

Data set [4] deals with Coll3 (Homo sapiens, UniProt P45452). The data set is described as follows: MCA fluorogenic enzyme assay, competitive inhibition analysis (Ki,app), Coll3. The settings on record: MCA peptide substrate, 37° C., pH 7.5, read-out: Enzyme Inhibition Constants (K1) Coll3. The format is biochemical.
Data set [5] relates to murine Lewis lung carcinoma (NIH) tumor line. Nature of the data set: Tumor model: subcutaneous Lewis lung carcinoma, primary tumor growth and lung metastases. It is filed as in vivo, female BDF1 mice. The settings on record: 50 mg/kg; for Tumor Growth Delay / % Inhibition-Lung Metastases: i.p., daily, Day 1-Day 21; for Tumor Growth Delay: delay in reaching 1000 mm^3 tumor volume between control and treated animals; for % Inhibition-Lung Metastases: metastases counted 22 days after tumor implantation. The source says: Primary subcutaneous tumors were established in female BDF1 mice by trocar inoculation of the murine Lewis lung carcinoma (NIH) tumor line. This tumor line produces spontaneous lung metastases which arise from the primary tumor. Primary tumor growth was monitored by measuring the length and width of the subcutaneous tumor using calipers; lung metastases were counted at the end of the experiment (22 days after tumor implantation) by removing the lungs and counting the lesions using a dissecting microscope. The test compound was administered daily, i.p., beginning 24 hours after tumor implantation (day 1) and continuing through day 21. Primary tumor volumes and number of lung metastases were compared to control animals using an ANOVA followed by a comparison of means using the F statistic. […] All drugs were administered at 50 mg/kg, i.p., daily, Day 1-Day 21.

Data set [6] deals with bovine nasal cartilage plugs. The data set is described as follows: Arthritis model: implanted bovine nasal cartilage plugs in sponges impregnated with Mycobacterium tuberculosis. The settings on record: p < 0.01; for weight loss % inhibition: cartilage plug weight; for hydroxyproline % protection: hydroxyproline content of plugs. It is filed as in vivo, female Lewis rats. On the procedure:
Previously frozen bovine nasal cartilage plugs weighing approximately 20 mg were embedded in polyvinyl sponges impregnated with Mycobacterium tuberculosis and implanted subcutaneously in female Lewis rats. Dosing was begun 9 days after implantation and the plugs were harvested about one week later. The plugs were weighed and then hydrolyzed and the hydroxyproline content measured. Efficaciousness was determined by the comparison of the compound-treated groups with vehicle-treated controls.

In data set [7] the target is T3, HFC (Homo sapiens, UniProt P03956).
T3 sequence (P03956 100-469): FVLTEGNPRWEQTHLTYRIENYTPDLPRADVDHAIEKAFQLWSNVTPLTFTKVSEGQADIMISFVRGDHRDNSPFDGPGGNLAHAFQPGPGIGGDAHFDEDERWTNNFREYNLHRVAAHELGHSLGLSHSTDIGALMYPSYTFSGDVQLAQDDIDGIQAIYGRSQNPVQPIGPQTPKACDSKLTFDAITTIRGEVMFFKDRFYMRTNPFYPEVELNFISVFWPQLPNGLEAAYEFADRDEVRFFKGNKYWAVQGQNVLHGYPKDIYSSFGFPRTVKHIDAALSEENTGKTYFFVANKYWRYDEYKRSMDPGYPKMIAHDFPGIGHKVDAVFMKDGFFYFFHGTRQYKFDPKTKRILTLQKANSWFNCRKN
Nature of the data set: MCA fluorogenic enzyme assay, competitive inhibition analysis (Ki,app), HFC. The format is biochemical. The settings on record: MCA peptide substrate, 37° C., pH 7.5, read-out: Enzyme Inhibition Constants (K1) HFC.

Where a name gives a salt, the structure may show the parent alone.

stromelysin (HSLN), sequence (P08254 100-477): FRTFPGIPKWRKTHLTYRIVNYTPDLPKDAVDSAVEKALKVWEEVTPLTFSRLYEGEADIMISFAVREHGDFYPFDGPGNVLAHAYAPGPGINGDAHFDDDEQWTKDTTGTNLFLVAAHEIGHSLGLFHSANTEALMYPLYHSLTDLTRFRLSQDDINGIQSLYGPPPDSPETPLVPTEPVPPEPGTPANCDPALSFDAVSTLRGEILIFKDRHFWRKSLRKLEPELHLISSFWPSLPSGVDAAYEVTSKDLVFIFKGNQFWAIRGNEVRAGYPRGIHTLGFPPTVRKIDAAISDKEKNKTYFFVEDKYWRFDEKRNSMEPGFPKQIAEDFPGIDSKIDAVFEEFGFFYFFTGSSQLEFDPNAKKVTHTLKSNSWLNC

As to `CC(C)(C)OC(=O)N1CCN(S(=O)(=O)c2ccc(Oc3ccc(Cl)cc3)cc2)[C@@H](C(=O)NO)C1` [Example 9(a), 2(R)-N-hydroxy-1-(4-(4-chlorophenoxy)benzenesulfonyl)-4-(t-butoxycarbonyl)-piperazine-2-carboxamide], the Ki in data set [1] is 0.31 nM; in data set [2] it was 0.007 nM; in data set [3] it was 142 nM; in data set [4], 0.006 nM. Also, the “Tumor Growth Delay” value in data set [5] is recorded as 7.2 days (p < 0.025). The “% Inhibition-Lung Metastases” value in data set [5] is listed as 77.6% (p < 0.05). Also, in data set [5] (p<0.025), the “tumor growth delay relative to control (significance, in words)” value is “statistically significant”. Besides, the “number of lung metastases relative to the control (significance, in words)” value in data set [5] (p<0.05) is recorded as “statistically significant”.
In general, melting point refers to the temperature, or range, at which the solid turns liquid. `CCOC(=O)CN1CCN(S(=O)(=O)c2ccc(Oc3ccc(Cl)cc3)cc2)[C@@H](C(=O)NO)C1` (as salt: hydrochloride) [Example 11(c), 2(R)-N-hydroxy-1-(4-(4-chlorophenoxy)benzenesulfonyl)-4-(ethoxycarbonylmethyl)-piperazine-2-carboxamide hydrochloride] came in with a melting point of 163.7 °C.
In the case of `Cc1ccc(Oc2ccc(S(=O)(=O)Cl)cc2)cc1` [2(b), 4-(4-Methylphenoxy)benzenesulfonyl chloride], the melting point was 295 to 300 °C. The “weight loss % inhibition” value in data set [6] (dose p.o. 25 mg/kg/day) was found to be 81.1%.
For the molecule `CC1(C)SCCN(S(=O)(=O)c2ccc(Oc3ccc(-n4ccnc4)cc3)cc2)[C@H]1C(=O)NO` [3(a), 3(S)-N-hydroxy-4-(4-(4-(imidazol-1-yl)phenoxy)benzenesulfonyl)-2,2-dimethyl-tetrahydro-2H-1,4-thiazine-3-carboxamide], the Ki in data set [1] turned out to be 0.25 nM; in data set [2] it was 0.011 nM; in data set [7] it was 15 nM; in data set [3], 5 nM; in data set [4] it was 0.017 nM. Besides, the “weight loss % inhibition” value in data set [6] (dose p.o. 25 mg/kg/day) worked out at 97.5%.
Consider `O=C(NO)C1CNCCN1S(=O)(=O)c1ccc(Oc2ccccc2)cc1` (racemic) [Example 5(b), 2(R/S)-N-hydroxy-1-(4-phenoxybenzenesulfonyl)-piperazine-2-carboxamide], for which the melting point was found to be 160.4 °C. In addition, the Ki in data set [1] came out at 6.2 nM. Further, in data set [2], the Ki is 0.864 nM. Also, the Ki in data set [3] came to 560 nM.
`O=C(NO)[C@H]1COCCN1S(=O)(=O)c1ccc(Oc2ccc(Cl)cc2)cc1` [8(a), 3(R)-N-hydroxy-4-(4-(4-chlorophenoxy)benzenesulfonyl)-morpholine-3-carboxamide]: the Ki in data set [1] was found to be 0.093 nM; in data set [2] it was 0.031 nM; in data set [7], 8.9 nM; in data set [3] it was 77 nM; in data set [4] it was 0.021 nM. In addition, the “Tumor Growth Delay” value in data set [5] was -0.1 days. Also, in data set [5], the “% Inhibition-Lung Metastases” value is recorded as 7.5%.
With `CC(=O)N1CCN(S(=O)(=O)c2ccc(Oc3ccccc3)cc2)C(C(=O)NO)C1` (racemic) [7(a), 2(R/S)-N-hydroxy-1-(4-phenoxybenzenesulfonyl)-4-acetyl-piperazine-2-carboxamide], the Ki in data set [1] came to 0.64 nM; in data set [2], 0.11 nM; in data set [3], 113 nM; in data set [4] it was 0.05 nM. Also, the “weight loss % inhibition” value in data set [6] (dose p.o. 10 mg/kg/day) came to 77.4%. This molecule also yielded a hydroxyproline % protection in data set [6] (dose p.o. 10 mg/kg/day) of 86.7%. Moreover, the “Tumor Growth Delay” value in data set [5] was 0.0 days. In addition, the “% Inhibition-Lung Metastases” value in data set [5] is 16.1%.
As to `Cl.O=C(NO)C1CNCCN1S(=O)(=O)c1ccc(Oc2ccc(Br)cc2)cc1` (racemic) [5(a), 2(R/S)-N-hydroxy-1(4-(4-bromophenoxy)benzenesulfonyl)-piperazine-2-carboxamide hydrochloride], the Ki was found to be 1.8 nM in data set [1]; 0.77 nM in data set [2]; 68 nM in data set [7]; 263 nM in data set [3]; 1.1 nM in data set [4]. Besides, the “weight loss % inhibition” value in data set [6] (dose p.o. 10 mg/kg/day) came to 59.6%. The hydroxyproline % protection in data set [6] (dose p.o. 10 mg/kg/day) is reported as 72.5%. Besides, the “Tumor Growth Delay” value in data set [5] turned out to be 2.0 days. For the same molecule, the “% Inhibition-Lung Metastases” value in data set [5] is on record as 13.6%.
In the case of `CC1(C)C(C(=O)NO)N(S(=O)(=O)c2ccc(Oc3ccc(Cl)cc3)cc2)CC[S+]1[O-]` [Example 19(b), 1(R), 3(S)-N-hydroxy-4-(4-(4-chlorophenoxy)benzenesulfonyl)-2,2-dimethyl-1-oxo-tetrahydro-2H-1,4-thiazine-3-carboxamide], the melting point lay within 145 to 147 °C. Also, in data set [1], the Ki was found to be 2.5 nM. Also, the Ki in data set [2] worked out at 0.018 nM.
Consider `CC(C)(C)OC(=O)N1CCN(S(=O)(=O)c2ccc(Oc3ccc(Br)cc3)cc2)C(C(=O)NO)C1` (racemic) [Example 4, 2(R/S)-N-hydroxy-1-(4-(4-bromophenoxy)benzenesulfonyl)-4-(t-butoxycarbonyl)-piperazine-2-carboxamide], for which the melting point came to 112.4 °C. The Ki in data set [1] is 0.73 nM. In data set [2], the Ki was 0.025 nM. The Ki in data set [7] was 60 nM. Also, the Ki in data set [3] came out at 378 nM. For the same molecule, the Ki in data set [4] was 0.07 nM.
